Measured values as given in patent US7476764B2, “Phenylcarboxyamides as beta-secretase inhibitors” (Bristol-Myers Squibb Company, priority 2005, dated 2009).
pIC50: −log10 of the molar value. Counter-ions that a name gives are not always drawn.

Biological target: T1, BACE1 enzyme (Homo sapiens, UniProt P56817)
T1 construct: The HEK293-9B.A1 cell line, which overexpresses the BACE1 enzyme, was derived from HEK293 cells; endogenous in cells; washed 48,000 x g pellet of the cell homogenate
Experiment: Radioligand displacement assay with a radiolabeled BACE inhibitor on HEK293-9B.A1 cell homogenate
Format: binding
Settings: displacement of 1 nM tritiated radioligand, HEK293-9B.A1 homogenate, pH 5.0, 1.5 hr at 25° C.; read-out: Activity Rating (activity based on IC50 values)
Protocol: Radioligand displacement assays with a radiolabeled BACE inhibitor (WO 2004 013098, compound 3, where the methoxy group is substituted for C(^3H)3) were carried out using standard methods (Keen, M. (1999) in Receptor Binding Techniques (Walker, J. M. ed) p. 106 Humana Press, Totowa, N.J.). The HEK293-9B.A1 cell line, which overexpresses the BACE1 enzyme, was derived from HEK293 cells (Simmons, N. L. (1990) A cultured human renal epitheloid cell line responsive to vasoactive intestinal peptide. Exp. Physiol. 75:309-19.) by RAGE™ (Harrington, J. J. et al. (2001) Creation of genome-wide protein expression libraries using random activation of gene expression. Nat. Biotechnol. 19:440-5; U.S. Pat. Nos. 6,410,266 and 6,361,972). T225 flask cultures of HEK293-9B.A1 were grown to 80% confluency in DMEM supplemented with 2 mM L-glutamine, 10 μg/ml penicillin, 10 μg/ml streptomycin, 3 μg/ml puromycin, 100 nM methotrexate, and 10% fetal bovine serum (Invitrogen, Carlsbad, Calif.), harvested, and resuspended at 2×10^8 cells per 10 ml of lysis buffer consisting of 50 mM HEPES pH 7.0 containing a protease inhibitor cocktail of AEBSF 104 μM, aprotinin 80 nM, leupeptin 2 μM, bestatin 4 μM, pepstatin A 1.5 μM, and E-64 1.4 μM (0.1% of protease inhibitor cocktail P8340, Sigma-Aldrich, St. Louis, Mo.) at 4° C. The resuspended cells were homogenized using a Polytron (Brinkman, Westbury, N.Y.) at setting 6 for 10 sec., then centrifuged at 48,000×g for 10 min. The resulting pellet was washed by repeating the resuspension, homogenization and centrifugation steps. The final pellet was resuspended in buffer at 4° C. to yield a total protein concentration of 5 mg/ml, then aliquots were frozen in liquid nitrogen for further storage at −70° C. Immediately before carrying out a binding assay, an aliquot of cell homogenate was thawed and diluted to a concentration of 100 μg/ml in assay buffer consisting of 50 mM HEPES pH 5.0 and 0.1% CHAPSO. Assays were initiated in polypropylene 96-well plates (Costar, Cambridge, Mass.) by the addition of 200 μl of cell homogenate to 50 μl of assay buffer containing 1 nM radioligand (WO 2004 013098, compound 3, where the methoxy group is substituted for C(^3H)3: 80 Ci/mMol) and various concentrations of unlabelled compounds, and incubated for 1.5 hr. at 25° C. Separation of bound from free radioligand was by filtration on GFF glass fiber filters (Innotech Biosystems International, Lansing, Mich.) using an Innotech cell harvester.

T1 sequence (P56817 46-501): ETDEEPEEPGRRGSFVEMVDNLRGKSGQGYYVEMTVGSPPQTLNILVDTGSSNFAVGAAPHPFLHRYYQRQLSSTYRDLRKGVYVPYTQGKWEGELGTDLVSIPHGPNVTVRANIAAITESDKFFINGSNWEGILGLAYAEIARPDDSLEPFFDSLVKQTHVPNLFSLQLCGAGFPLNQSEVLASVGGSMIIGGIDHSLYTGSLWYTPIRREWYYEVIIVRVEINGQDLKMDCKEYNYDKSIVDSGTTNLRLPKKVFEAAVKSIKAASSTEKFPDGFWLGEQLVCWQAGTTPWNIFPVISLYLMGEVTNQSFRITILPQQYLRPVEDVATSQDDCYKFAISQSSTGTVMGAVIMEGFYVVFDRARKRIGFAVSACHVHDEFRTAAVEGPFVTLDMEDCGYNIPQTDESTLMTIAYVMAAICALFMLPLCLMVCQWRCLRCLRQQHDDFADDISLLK

**Q.** How did the pIC50 turn out when `CCCN(CCC)C(=O)c1cc(C(C)=O)cc(C(=O)N[C@@H](Cc2cc(F)cc(F)c2)[C@H](O)CNCc2cccc(OC)c2)c1` [Example 1, N^1-((2S,3R)-4-(3-methoxybenzylamino)-1-(3,5-difluorophenyl)-3-hydroxybutan-2-yl)-5-acetyl-N^3,N^3-dipropylisophthalamide TFA salt] was run?
**A.** > 7.00

**Q.** How did the pIC50 turn out when `CCCN(CCC)C(=O)c1cc(C(=O)N[C@@H](Cc2cc(F)cc(F)c2)[C@H](O)CNCc2cccc(OC)c2)cc(C(C)O)c1` (stereo partly drawn) [Example 2, N^1-((2S,3R)-4-(3-methoxybenzylamino)-1-(3,5-difluorophenyl)-3-hydroxybutan-2-yl)-5-(1-hydroxyethyl)-N^3,N^3-dipropylisophthalamide TFA salt] was run?
**A.** > 7.00

**Q.** `CCCN(CCC)C(=O)c1cc(C(=O)N[C@@H](Cc2cc(F)cc(F)c2)[C@H](O)CNCc2cccc(OC)c2)cc(/C(C)=N/OC)c1` [Example 3, N^1-((2S,3R)-4-(3-methoxybenzylamino)-1-(3,5-difluorophenyl)-3-hydroxybutan-2-yl)-5-((E)-1-(methoxyimino)ethyl)-N^3,N^3-dipropylisophthalamide TFA salt] was tested. Which pIC50 did it give?
**A.** > 7.00

**Q.** With `CCCN(CCC)C(=O)c1cc(C(=O)N[C@@H](Cc2cc(F)cc(F)c2)[C@H](O)CNCc2cccc(OC)c2)cc(/C(C)=N/OCc2ccccc2)c1` [Example 4, N^1-((2S,3R)-4-(3-methoxybenzylamino)-1-(3,5-difluorophenyl)-3-hydroxybutan-2-yl)-5-((E)-1-(benzyloxyimino)ethyl)-N^3,N^3-dipropylisophthalamide TFA salt] as the compound, how does the pIC50 read?
**A.** > 7.00

**Q.** How did the pIC50 turn out when `CCCN(CCC)C(=O)c1cc(C(=O)N[C@@H](Cc2cc(F)cc(F)c2)[C@H](O)CNCc2cccc(OC)c2)cc(/C(C)=N/O)c1` [Example 5, N^1-((2S,3R)-4-(3-methoxybenzylamino)-1-(3,5-difluorophenyl)-3-hydroxybutan-2-yl)-5-((E)-1-(hydroxyimino)ethyl)-N^3,N^3-dipropylisophthalamide hydrochloride] was run?
**A.** > 7.00

**Q.** With `CCCN(CCC)C(=O)c1cc(C(=O)N[C@@H](Cc2cc(F)cc(F)c2)[C@H](O)CNCc2cccc(OC)c2)cc(/C(C)=N/OCC(C)C)c1` [Example 6, N^1-((2S,3R)-4-(3-methoxybenzylamino)-1-(3,5-difluorophenyl)-3-hydroxybutan-2-yl)-5-((E)-1-(isobutoxyimino)ethyl)-N^3,N^3-dipropylisophthalamide TFA salt] as the compound, how does the pIC50 read?
**A.** > 7.00

**Q.** `C=CCO/N=C(\C)c1cc(C(=O)N[C@@H](Cc2cc(F)cc(F)c2)[C@H](O)CNCc2cccc(OC)c2)cc(C(=O)N(CCC)CCC)c1` [Example 7, N^1-((2S,3R)-4-(3-methoxybenzylamino)-1-(3,5-difluorophenyl)-3-hydroxybutan-2-yl)-5-((E)-1-(allyloxyimino)ethyl)-N^3,N^3-dipropylisophthalamide TFA salt] was tested. Which pIC50 did it give?
**A.** > 7.00

**Q.** `CCCN(C)C(=O)c1cc(C(C)=O)cc(C(=O)N[C@@H](Cc2cc(F)cc(F)c2)[C@H](O)CNCc2cccc(OC)c2)c1` [Example 8, N^1-((2S,3R)-4-(3-methoxybenzylamino)-1-(3,5-difluorophenyl)-3-hydroxybutan-2-yl)-5-acetyl-N^3-methyl-N^3-propylisophthalamide TFA salt] was tested. Which pIC50 did it give?
**A.** > 7.00

**Q.** With `CCCN(C)C(=O)c1cc(C(=O)N[C@@H](Cc2cc(F)cc(F)c2)[C@H](O)CNCc2cccc(OC)c2)cc(/C(C)=N/O)c1` [Example 9, N^1-((2S,3R)-4-(3-methoxybenzylamino)-1-(3,5-difluorophenyl)-3-hydroxybutan-2-yl)-5-((E)-1-(hydroxyimino)ethyl)-N^3-methyl-N^3-propylisophthalamide hydrochloride] as the compound, how does the pIC50 read?
**A.** > 7.00

**Q.** `CCCN(C)C(=O)c1cc(C(=O)N[C@@H](Cc2cc(F)cc(F)c2)[C@H](O)CNCc2cccc(OC)c2)cc(/C(C)=N/OC)c1` [Example 10, N^1-((2S,3R)-4-(3-methoxybenzylamino)-1-(3,5-difluorophenyl)-3-hydroxybutan-2-yl)-5-((E)-1-(methoxyimino)ethyl)-N^3-methyl-N^3-propylisophthalamide hydrochloride] was tested. Which pIC50 did it give?
**A.** > 7.00

**Q.** `CCCN(C)C(=O)c1cc(C(=O)N[C@@H](Cc2cc(F)cc(F)c2)[C@H](O)CNCc2cccc(OC)c2)cc(/C(C)=N/OCc2ccccc2)c1` [Example 11, N^1-((2S,3R)-4-(3-methoxybenzylamino)-1-(3,5-difluorophenyl)-3-hydroxybutan-2-yl)-5-((E)-1-(benzyloxyimino)ethyl)-N^3-methyl-N^3-propylisophthalamide hydrochloride] was tested. Which pIC50 did it give?
**A.** > 7.00

**Q.** With `CCCN(C)C(=O)c1cc(C(=O)N[C@@H](Cc2cc(F)cc(F)c2)[C@H](O)CNCc2cccc(OC)c2)cc(/C(C)=N/OCC(C)C)c1` [Example 12, N^1-((2S,3R)-4-(3-methoxybenzylamino)-1-(3,5-difluorophenyl)-3-hydroxybutan-2-yl)-5-((E)-1-(isobutoxyimino)ethyl)-N^3-methyl-N^3-propylisophthalamide hydrochloride] as the compound, how does the pIC50 read?
**A.** > 7.00

**Q.** With `C=CCO/N=C(\C)c1cc(C(=O)N[C@@H](Cc2cc(F)cc(F)c2)[C@H](O)CNCc2cccc(OC)c2)cc(C(=O)N(C)CCC)c1` [Example 13, N^1-((2S,3R)-4-(3-methoxybenzylamino)-1-(3,5-difluorophenyl)-3-hydroxybutan-2-yl)-5-((E)-1-(allyloxyimino)ethyl)-N^3-methyl-N^3-propylisophthalamide hydrochloride] as the compound, how does the pIC50 read?
**A.** > 7.00

**Q.** How did the pIC50 turn out when `CCCO/N=C(\C)c1cc(C(=O)N[C@@H](Cc2cc(F)cc(F)c2)[C@H](O)CNCc2cccc(OC)c2)cc(C(=O)N(C)CCC)c1` [Example 14, N^1-((2S,3R)-4-(3-methoxybenzylamino)-1-(3,5-difluorophenyl)-3-hydroxybutan-2-yl)-N^3-methyl-5-((E)-1-(propoxyimino)ethyl)-N^3-propylisophthalamide] was run?
**A.** > 7.00

**Q.** `CCCN(C)C(=O)c1cc(C(=O)N[C@@H](Cc2cc(F)cc(F)c2)[C@H](O)CNCc2cccc(OC)c2)cc(C(C)O)c1` (some centres unmarked) [Example 15, hydrochloride] was tested. Which pIC50 did it give?
**A.** > 7.00

**Q.** `COc1cccc(CNC[C@@H](O)[C@H](Cc2cc(F)cc(F)c2)NC(=O)c2cc(C(C)=O)cc(S(C)(=O)=O)c2)c1` [Example 16, N^1-((2S,3R)-4-(3-methoxybenzylamino)-1-(3,5-difluorophenyl)-3-hydroxybutan-2-yl)-3-acetyl-5-(methylsulfonyl)benzamide TFA salt] was tested. Which pIC50 did it give?
**A.** 6.00 to 7.00

**Q.** How did the pIC50 turn out when `CO/N=C(\C)c1cc(C(=O)N[C@@H](Cc2cc(F)cc(F)c2)[C@H](O)CNCc2cccc(OC)c2)cc(S(C)(=O)=O)c1` [Example 17, N-((2S,3R)-4-(3-methoxybenzylamino)-1-(3,5-difluorophenyl)-3-hydroxybutan-2-yl)-3-((E)-1-(methoxyimino)ethyl)-5-(methylsulfonyl)benzamide TFA salt] was run?
**A.** 6.00 to 7.00

**Q.** How did the pIC50 turn out when `COc1cccc(CNC[C@@H](O)[C@H](Cc2cc(F)cc(F)c2)NC(=O)c2cc(/C(C)=N/OCc3ccccc3)cc(S(C)(=O)=O)c2)c1` [Example 18, N-((2S,3R)-4-(3-methoxybenzylamino)-1-(3,5-difluorophenyl)-3-hydroxybutan-2-yl)-3-((E)-1-(benzyloxyimino)ethyl)-5-(methylsulfonyl)benzamide TFA salt] was run?
**A.** 6.00 to 7.00

**Q.** How did the pIC50 turn out when `CCCO/N=C(\C)c1cc(C(=O)N[C@@H](Cc2cc(F)cc(F)c2)[C@H](O)CNCc2cccc(OC)c2)cc(S(C)(=O)=O)c1` [Example 19, N-((2S,3R)-4-(3-methoxybenzylamino)-1-(3,5-difluorophenyl)-3-hydroxybutan-2-yl)-3-(methylsulfonyl)-5-((E)-1-(propoxyimino)ethyl)benzamide TFA salt] was run?
**A.** 6.00 to 7.00

**Q.** `COc1cccc(CNC[C@@H](O)[C@H](Cc2cc(F)cc(F)c2)NC(=O)c2cc(/C(C)=N/OCC(C)C)cc(S(C)(=O)=O)c2)c1` [Example 20, N-((2S,3R)-4-(3-methoxybenzylamino)-1-(3,5-difluorophenyl)-3-hydroxybutan-2-yl)-3-((E)-1-(isobutoxyimino)ethyl)-5-(methylsulfonyl)benzamide TFA salt] was tested. Which pIC50 did it give?
**A.** < 6.00
